Laboratory results published in patent US5436273A, “Psychoactive propargylamine derivatives used in the treatment of anxiety, psychotic states or aggression” (Lowchol Scientific, Inc., priority 1993, dated 1995).
Where two headings read alike, the source gives them in different places.

Legend:
[1] = tested on: spontaneous motor activity in mice; experiment: Inhibition of spontaneous motor activity in mice; format: in vivo, CD #1 mice; conditions: for ED50: Mus musculus, ip, 0.5 h
Procedure: 4. Inhibition of Spontaneous Motor Activity in Mice
Female CD #1 mice (20-30 g) are used for this experiment. The effect of the compound to be studied on spontaneous activity was evaluated by an automated […] XYZ system. This system allows the simultaneous quantification of the following parameters:
number of stereotypic movements;
number of vertical movements;
number of clockwise revolutions; and
number of counterclockwise revolutions.
(§1) Two animals are studied simultaneously, one treated and one control. After a 2 hour period of acclimatization to the room, a first activity count of 10 minutes duration is perfomed. The compound to be studied is then administered i.p. and the spontaneous activity is reevaluated 30 minutes later over a period of 10 minutes.

[2] = Acute toxicity test; conditions: mouse, in vivo, po; read-out: LD50
Procedure: CD #1 mice (20-30 g) are used for this test. The animals are individualy housed in glass beakers for a 2 hour period of acclimatization without food and water.

[3] = Rotarod neurotoxicity test in mice; conditions: mouse, rotarod, po
[4] = Effect on body temperature, buspirone in rats; format: in vivo, Sprague Dawley rats
Procedure: Female CD #1 mice (20-30 g) are used. Rectal temperature is recorded before and one hour after s.c. administration of the compound to be studied (N=8/doses×4 doses). The solvent used is sterile water for intravenous injection.
The results which are reported in Table 9 are expressed in terms of the variation of temperature for different doses. Buspirone was tested on Sprague Dawley rats.

[5] = tested on: righting reflex / ethanol narcosis in mice; experiment: Potentiation of sleeping time induced by ethanol in mice; format: in vivo, CD #1 mice; conditions: subhypnotic dose of ethanol, mice
Procedure: 7. Potentiation of Sleeping Time Induced by Ethanol in Mice
This test was done with male CD #1 mice of 25-35 g. The mice are injected intraperitoneally (8 mice per dose). A subhypnotic dose of ethanol (12 ml/kg of 50% ethanol solution) is administered orally 30 minutes later.
The loss of the righting reflex is evaluated, for each animal, 30 minutes after the administration of the alcohol. It is considered that there is a potentialization of ethanol narcosis if the righting time exceeded 30 seconds.
The results which are reported in Table 7 are expressed in terms of the percentage of animals displaying a loss of the righting reflex versus the administered dose. Chlorpromazine (5 mg/kg i.p.) is used as a standard.

[6] = tested on: exploratory behavior in rats; experiment: Inhibition of exploratory behavior in rats (hole poking); format: in vivo, Sprague-Dawley rats; conditions: rats
Procedure: 8. Inhibition of Exploratory Behavior in Rats (Hole Poking).
This test is done with Sprague-Dawley male rats of about 300 g. Activity is evaluated with a […] XYZ activity cage connected to a […] […] DCM-4. A perforated plate (16 holes of 2-5 cm diameter) is placed in the enclosure and on the activity case to register vertical activity. The number of times the rat placed his snout into the holes during a 10 minute period is recorded. The test was started 30 minutes after the interperitoneal injection of the compound to be studied.
The results which are reported in Table 8 are expressed in terms of the dose required to diminish by 50% the exploratory behavior, with reference to animals injected with the carrier only. Diazepam and buspirone are used as standards.

[7] = tested on: spontaneous motor activity in rats; experiment: Inhibition of spontaneous motor activity in rats; format: in vivo, Sprague Dawley rats; conditions: for ED50: Rattus norvegicus, ip, 0.5 h, i.p., 30 minutes
Procedure: as §1
5. Inhibition of Spontaneous Motor Activity in Rats
The method is the same as described above for mice, except that because of the size of the animals (Sprague Dawley rats; 300 g), the test and control animals are not evaluated simultaneously, but alternatively.

[8] = tested on: conditioned avoidance response in rats; experiment: Inhibition of conditioned avoidance response in rats; format: in vivo, Sprague Dawley rats; conditions: rats
Description: 6. Inhibition of Conditioned Avoidance Response in Rats
Male Sprague Dawley rats (200-250 g) are trained to avoid an electric foot shock, by continuously changing room with the appropriate visuals and auditory signals, in an automatic 2-way conditioned avoidance apparatus (Coulbourn Instrument Co.). Only the animals that perform at least a 70% avoidance (3 successive training sessions) are kept for the experiment.
The day of the experiment, the selected animals are submitted to a pre-treatment control session. The compound to be studied is then administered i.p. and the animals are placed back in the apparatus for evaluation 30 minutes later. Diazepam was used as a standard.

Structure (SMILES): O=C1CC2(CCCC2)CC(=O)N1CCCCN1CCN(c2ncccn2)CC1 [Buspirone, reference compound]
- inhibition of spontaneous motor activity (in words) [1]: inhibit spontaneous motor activity in mice and rats
- ED50 ([1]; i.p., 30 minutes, read-out: ED50, clockwise revolutions): 17.9 ± 6.9 mg/kg
- ED50 ([1]; i.p., 30 minutes, read-out: ED50, horizontal activity): 20.5 ± 16.7 mg/kg
- ED50 ([1]; i.p., 30 minutes, read-out: ED50, movement time): 19.9 ± 8.9 mg/kg
- ED50 ([1]; i.p., 30 minutes, read-out: ED50, stereotypy time): 22.7 ± 13.7 mg/kg
- ED50 ([1]; i.p., 30 minutes, read-out: ED50, total distance): 22.6 ± 15.8 mg/kg
- ED50, counterclockwise revolutions ([1]; i.p., 30 minutes): no dose-response
- ED50, number of movements ([1]; i.p., 30 minutes): no dose-response
- ED50, number of stereotypic movements ([1]; i.p., 30 minutes): no dose-response
- ED50, vertical activity ([1]; i.p., 30 minutes): no dose-response
- ED50, vertical movements ([1]; i.p., 30 minutes): no dose-response
- ED50, vertical time ([1]; i.p., 30 minutes): no dose-response
- LD50 [2]: 622 mg/kg
- TD50 [3]: 135 mg/kg
- Temp. Difference from Control ([4]; dose 10, Sprague Dawley rats): -2.7
- Temp. Difference from Control ([4]; dose 30, Sprague Dawley rats): -3.6
- Temp. Difference from Control ([4]; dose 100, Sprague Dawley rats): -5.8
- potentiation of ethanol (in words) [5]: more effective than compound N^o 3
- ED50 ([6]; Rattus norvegicus, ip, 0.5 h, i.p., 30 minutes, read-out: dose required to diminish by 50% the exploratory behavior): 2.8 ± 0.6 mg/kg
- inhibition of exploratory behavior (in words) [6]: more potent, in this respect, than diazepam but they rapidly lose their ability to produce this effect after the first administration
- inhibition of spontaneous motor activity (in words) [7]: inhibit spontaneous motor activity in mice and rats
- ED50 ([7]; read-out: ED50, clockwise revolutions): 2.3 ± 0.9 mg/kg
- ED50 ([7]; read-out: ED50, counterclockwise revolutions): 2.9 ± 0.7 mg/kg
- ED50 ([7]; read-out: ED50, horizontal activity): 2.7 ± 0.8 mg/kg
- ED50 ([7]; read-out: ED50, movement time): 3.2 ± 0.6 mg/kg
- ED50 ([7]; read-out: ED50, number of movements): 5.3 ± 0.9 mg/kg
- ED50 ([7]; read-out: ED50, number of stereotypic movements): 3.1 ± 0.8 mg/kg
- ED50 ([7]; read-out: ED50, stereotypy time): 1.7 ± 0.6 mg/kg
- ED50 ([7]; read-out: ED50, total distance): 2.8 ± 0.7 mg/kg
- inhibition of conditioned avoidance response (in words) [8]: inhibit conditioned avoidance in rats, but are less active than diazepam
